Like-named read-outs stand apart in the source and are kept apart here.
Tests used:
mouse colons = conditions: cited from earlier work
[1] = cited from earlier work
[2] = Experimental administration of potassium butyrate capsules as a weight loss agent to two human volunteers; assay type: in vivo; parameters: triglyceride values / total cholesterol / HDL / LDL / triglycerides: unit not given here
Procedure: Based on the inherent safety of butyrate as discussed in medical literature, experimental administration of butyrate was begun on two volunteers. Tests on the two human volunteers has produced weight loss of 17 pounds and 40 pounds respectively at a dosage of 3-5 capsules, once or twice daily (volunteer #1); or 3-5 capsules three times per day (volunteer #2). Each capsule contained approximately 140 mg of potassium butyrate at the start of the test period, and 231 mg each at the end of the test period. The butyrate capsules typically contain 231 to 287 mg of potassium butyrate and 345 to 431 mg of corn starch and 345 to 431 mg of sodium bicarbonate in a 920 to 1 100 mg Size 0 Lilly gelatin capsule. The potassium butyrate is prepared by oxidizing 1-butanol with potassium permanganate in aqueous solution at between 180° F. and 212° F. This reaction produces manganese dioxide and butyric acid and KOH. The manganese dioxide is quite insoluble and is filtered out, and the butyric acid is then neutralized by the potassium hydroxide formed, thus forming the salt, potassium butyrate. The following reactions are thought to produce the potassium butyrate:
The inventor, after having been convinced by the medical literature of the inherent safety of butyrate in humans, began experimental administration of potassium butyrate as a weight loss agent to two volunteers, one of which was […]. The starting dose was 23 mg twice a day, in capsules containing 230 mg of a 10% mixture each. Volunteer #1's starting weight then was 185 lb measured in the morning, fasting. Volunteer #1's height was […] making their body mass index (BMI) […]. Note this is in the range regarded as being overweight (25-30). The dose was increased to 66 mg twice a day a couple of days later, and after 20 days the weight declined to 181 lb. The dose was increased to 130 mg twice a day before meals after about a month. Weight after 2 months was 174 lb. During the 4th through 7th month, the dose averaged 280 mg twice a day on about half the days, skipping it on alternate days. Weight reached its lowest point after about 7 months: 168 lb, BMI 24.5, which is the upper range of normal. After that, the dose has been an average of […] once a day, taken before meals, but only used on alternate days. The weight on this low dose rose to 174 lb and has stayed within 4 lb of that for the last 5 months.
Another test subject, volunteer #2, started on potassium butyrate when weight was 256 lb, height 5′3″, BMI 40. Prior to this use of butyrate, subject's most successful weight losses was 50 lb over a 3 month period while on Optifast program, a 400 calorie a day supplemented fasting program.
The starting dose of butyrate was 40 mg three times a day. It was rapidly escalated to 560 mg before each meal and continued on that dose for about 6 months, when the dose was increased to 800 mg three times a day. Weight after 6 months was 222 lbs. The same dose was continued from that point for another 6 months. Then their weight was 220. Dose was then increased to 1150 mg three times a day for another 8 days. Then their weight was 216 after about a year, for a total of 40 lbs of weight loss during this slightly more than one year duration clinical trial. BMI declined to 35.

[3] = 10 week experiment in adolescent common white mice fed K butyrate in chocolate; assay type: in vivo
Procedure: Two mouse experiments involved 8 adolescent common white mice, still in the growth period. Four were assigned to the butyrate group and were fed K butyrate mixed in pieces of chocolate 300-400 mg size twice a day, and the other four mice were assigned to the non-butyrate group and were fed the same size pieces of plain chocolate. Both groups of mice were otherwise cared for in an identical fashion and fed twice as many food pellets as recommended. The dose of butyrate initially chosen was 3.47 mg per dose scaled down from the human dose according to the ratio of body surface area of mouse compared to man. This was estimated at 1:250.

[4] = About 9 week (67 day) test in adult mice with butyrate added to food; assay type: in vivo; conditions: 67 day test period
Procedure: Another test on adult mice was run for about 9 weeks. Butyrate was mixed with chocolate and/or cornstarch and the mixture was added to the mice's food (a commercial guinea pig food—Aytec Supreme Daily Blend Guinea Pig Diet). The butyrate dose started at 11.1 mg per mouse twice a day at the beginning of the study and ended up at 58 mg per mouse twice a day at the end of the study. The non-butyrate-fed mice had the same chocolate and/or cornstarch added to their food in equal weight compared to the butyrate-fed mice. The four butyrate mice gained an average of 50 mg each over the 67 day test period, and the four non-butyrate mice gained an average of 325 mg each over the 67 day test period. While no weight loss occurred in either group the butyrate mice gained less weight, by a ratio of about 6.5 to 1.

CCCC(=O)O [alkaline butyrate ion, reference compound]
colitis (mouse colons; mouse, in vivo): did not cause colitis

CCCC(=O)O [butyric acid]
colitis (mouse colons; 1% concentration instilled into mouse colons): caused colitis

CCCC(=O)[O-].[K+] [potassium butyrate]
half-life in the serum [1]: 2 min
adverse effects ([2]; volunteer #1): No adverse effects occurred except for occasional transient epigastric aching soon after a dose
cholesterol and cholesterol ratios ([2]; volunteer #1): not changed significantly
halitosis or foul eructation ([2]; volunteer #1): No halitosis or foul eructation occurred
liver enzymes and liver function tests ([2]; volunteer #1): remained normal
weight loss ([2]; volunteer #1, 3-5 capsules once or twice daily): 17 pounds
weight ([2]; volunteer #1, after 2 months, 130 mg twice a day before meals, starting weight 185 lb): 174 lb
weight ([2]; volunteer #1, after 20 days, 23 then 66 mg twice a day, starting weight 185 lb): 181 lb
triglyceride values ([2]; volunteer #1, after about 6 months, initially 310): 230
weight, lowest point ([2]; volunteer #1, after about 7 months, 280 mg twice a day on about half the days, starting weight 185 lb): 168 lb
body mass index (BMI) ([2]; volunteer #1, after about 7 months, starting BMI 27): 24.5
carpal tunnel syndrome symptoms ([2]; volunteer #1, after about 14 months): improved markedly
blood pressure ([2]; volunteer #1, after about 14 months, hypertension before required 4 mg per day Cardura): normal without medication
blood counts and survey chemistries (SMA-18 or comprehensive chemistry) ([2]; volunteer #1, checked periodically): normal
weight ([2]; volunteer #1, low dose, average 660 mg once a day on alternate days, stayed within 4 lb for the last 5 months): 174 lb
HDL cholesterol ([2]; volunteer #1, over 4 months, from 48): 47
total cholesterol ([2]; volunteer #1, over 4 months, from 235): 236
fatigue ([2]; volunteer #2): lessened
feeling of general well being ([2]; volunteer #2): improved
weight loss ([2]; volunteer #2, 3-5 capsules three times per day): 40 pounds
exercise tolerance on treadmill exercise stress tests ([2]; volunteer #2, after 1 year's use vs previous test): almost doubled
time able to walk on treadmill in stress test ([2]; volunteer #2, after 1 year's use, previous test 4 minutes): 7 min
weight ([2]; volunteer #2, after 6 months, 560 mg before each meal, starting weight 256 lb): 222 lbs
weight ([2]; volunteer #2, after about a year, 1150 mg three times a day for another 8 days, starting weight 256 lb): 216 lbs
BMI ([2]; volunteer #2, after about a year, starting BMI 40): 35
weight ([2]; volunteer #2, after another 6 months at 800 mg three times a day, starting weight 256 lb): 220 lbs
total cholesterol ([2]; volunteer #2, dropped from 266): 238
abnormalities on periodic comprehensive chemistry blood tests and blood counts ([2]; volunteer #2, during butyrate use): no abnormalities have appeared
HDL ([2]; volunteer #2, from 56): 52
LDL ([2]; volunteer #2, from 160): 150
triglycerides ([2]; volunteer #2, from 269): 179
total weight loss ([2]; volunteer #2, slightly more than one year): 40 lbs
tolerability ([3]; adolescent mice, 3.47 mg per dose twice a day): well tolerated
weight gain less than non-butyrate mice ([3]; adolescent mice, 10 week experiment): about 10%
average weight gain per mouse ([3]; adolescent mice, 10 week experiment, 3.47 then 11.5 mg twice a day, non-butyrate mice 18.6 grams): 17 grams
difference in behavior, activity or agility vs non-butyrate group ([3]; mice): no difference
average weight gain per mouse ([4]; 11.1 to 58 mg per mouse twice a day, non-butyrate mice 325 mg): 50 mg
ratio of weight gain, non-butyrate to butyrate mice ([4]; ratio to 1): about 6.5
